Results: patent US20030186980A1, “Anthelmintic agents for preventing parasitic infections in humans and animals III” (priority 2000, published 2003)

What was measured:
[1] = test system: Schistosoma mansoni cercariae; experiment: Activity against Schistosoma mansoni cercariae (survival/mobility observed with a stereomagnifier); set-up: key: no effect during the entire test period of 120 minutes; 1: weak effect (the cercariae have a strongly reduced mobility); 2: good effect (the cercariae are only slightly mobile and bent); 3: full effect (the cercariae are completely immobile); conditions: 500 μl/l final concentration of active compound; PEG300/aquarium water; test period of 120 minutes; about 100 to 150 cercariae per batch
Method: [500 μl/l final concentration of the active compounds] Snails (Biomphalaria glabrata) were infected by incubating each of them with 8 miracidia in 10 ml of water overnight. About 6 to 9 weeks after the infection, cercariae were obtained by irradiating the snails, which had been kept in darkness, with light, followed by collection of the swarming cercariae within 2 hours.
Such an amount of cercariae-containing water (1 or 2 ml, see below) was added to the test batches that each batch contained about 100 to 150 cercariae.
5 μl of active compound were mixed thoroughly with 25 μl of PEG300. 9 ml of aquarium water was then added, and the batch was shaken vigorously. After (delayed) addition of 1 ml of cercariae suspension, survival of the cercariae was in each case observed immediately using a stereomagnifier.

[2] = test system: cercariae of Schistosoma mansoni; conditions: topical; Salafsky et al. 1998; cited from earlier work
[3] = test system: cercariae of Schistosoma mansoni; conditions: topical, monkeys; Bruce et al. 1992; cited from earlier work
[4] = test system: cercariae of Schistosoma mansoni; conditions: Fripp and Armstrong 1973; cited from earlier work

SMILES: CCC(C)N(C)C(=O)N1CC(C)OC(C)C1 (stereo not shown)
- activity rating against Schistosoma mansoni cercariae [1]: 1

SMILES: CCN(CC)C(=O)c1cccc(C)c1 [N,N-Diethyl-m-toluamide (DEET), N,N-Diethyl-m-toluamide]
- action against cercariae of Schistosoma mansoni [2]: acts against cercariae

SMILES: O=C(Nc1ccc([N+](=O)[O-])cc1Cl)c1cc(Cl)ccc1O [Niclosamide]
- action against the penetration of cercariae [3]: acts against the penetration of cercariae

SMILES: Oc1c(Cl)cc(Cl)c(Cl)c1Cc1c(O)c(Cl)cc(Cl)c1Cl [hexachlorophene]
- effect on cercariae of Schistosoma mansoni [4]: lethal effect
